Source: patent US20180194762A1 (Pharmacyclics LLC, priority 2017, published 2018)

What was measured:
Type in all cases: biochemical
[1] = molecular target: T1, panel of kinases (Homo sapiens, UniProt P51813); assay: Inhibition of a panel of kinases (in vitro HotSpot kinase assay, 33P-ATP, 1 μM ATP), other kinases; conditions: BMX wild-type, read-out: BMX-WT IC50
T1 sequence (P51813 1-675): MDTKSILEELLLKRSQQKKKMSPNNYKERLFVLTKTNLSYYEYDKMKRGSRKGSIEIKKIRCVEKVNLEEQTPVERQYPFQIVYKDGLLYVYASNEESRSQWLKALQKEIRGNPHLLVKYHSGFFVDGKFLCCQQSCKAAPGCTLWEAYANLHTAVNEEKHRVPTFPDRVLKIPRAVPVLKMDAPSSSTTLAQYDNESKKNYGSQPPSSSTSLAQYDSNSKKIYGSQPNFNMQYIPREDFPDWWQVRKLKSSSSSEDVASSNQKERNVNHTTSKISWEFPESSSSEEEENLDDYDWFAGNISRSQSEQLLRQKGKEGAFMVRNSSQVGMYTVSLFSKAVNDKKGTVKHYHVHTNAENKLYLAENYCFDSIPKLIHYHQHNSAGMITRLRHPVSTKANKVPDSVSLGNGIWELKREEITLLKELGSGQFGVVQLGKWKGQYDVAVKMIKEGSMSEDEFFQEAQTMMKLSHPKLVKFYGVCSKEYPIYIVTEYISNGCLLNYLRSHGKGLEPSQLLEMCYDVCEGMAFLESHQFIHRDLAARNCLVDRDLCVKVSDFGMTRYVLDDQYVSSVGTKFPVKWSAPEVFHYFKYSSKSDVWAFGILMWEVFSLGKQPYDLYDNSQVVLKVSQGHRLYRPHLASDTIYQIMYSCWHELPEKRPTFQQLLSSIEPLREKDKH
Outline: (§1)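 Degree of kinase inhibition is determined in vitro using isolated enzymes, a matched substrate and radiolabelled ATP (1 μM).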

[2] = molecular target: T2, Btk (Homo sapiens, UniProt Q06187); assay: Btk in vitro inhibitory activity (one of Method A TR-FRET, Method B electrophoretic mobility shift, Method C radiometric filter binding); conditions: wild-type Btk; read-out: Btk-WT IC50
T2 construct: purified from insect cells as a full-length construct containing a N-terminal 6X-His tag; His6 (N); made in house; host or cells: insect cells (Method C)
T2 sequence (Q06187 whole entry): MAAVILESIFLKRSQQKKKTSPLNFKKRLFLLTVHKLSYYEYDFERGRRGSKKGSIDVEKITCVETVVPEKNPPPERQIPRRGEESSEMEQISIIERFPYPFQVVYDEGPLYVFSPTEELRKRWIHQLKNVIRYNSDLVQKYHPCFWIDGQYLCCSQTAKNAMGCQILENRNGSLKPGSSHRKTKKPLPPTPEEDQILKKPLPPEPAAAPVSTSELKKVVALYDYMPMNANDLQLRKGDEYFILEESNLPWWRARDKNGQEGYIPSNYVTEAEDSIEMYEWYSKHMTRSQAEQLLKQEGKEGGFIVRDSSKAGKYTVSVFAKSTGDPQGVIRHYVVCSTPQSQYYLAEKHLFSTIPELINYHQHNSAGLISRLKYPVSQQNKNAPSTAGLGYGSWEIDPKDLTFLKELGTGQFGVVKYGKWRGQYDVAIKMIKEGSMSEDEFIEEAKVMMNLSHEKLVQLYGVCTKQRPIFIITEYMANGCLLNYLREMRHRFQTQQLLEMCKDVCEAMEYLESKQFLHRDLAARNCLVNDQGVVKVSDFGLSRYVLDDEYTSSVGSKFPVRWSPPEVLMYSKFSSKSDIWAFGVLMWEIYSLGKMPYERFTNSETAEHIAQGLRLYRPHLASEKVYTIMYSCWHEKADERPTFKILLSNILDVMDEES
Outline: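 Method A: TR-FRET with 0.5 nM Btk at [ATP]=Km, EDTA-quenched, 665/615 nm ratio; Ki(app) converted to IC50. Method B: 1 nM full-length His6 human BTK, 1 μM FAM peptide, pH 7.5, mobility-shift product/sum ratio, 12-point 4-parameter fit. Method C: radiometric filter binding, 8 nM His-tagged BTK, 0.2 mg/mL poly-Glu-Tyr.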

[3] = molecular target: T3, TEC (Homo sapiens, UniProt P42680); assay: Inhibition of a panel of kinases (in vitro HotSpot kinase assay, 33P-ATP, 1 μM ATP); conditions: HotSpot kinase assay, 1 μM ATP
T3 sequence (P42680 1-631): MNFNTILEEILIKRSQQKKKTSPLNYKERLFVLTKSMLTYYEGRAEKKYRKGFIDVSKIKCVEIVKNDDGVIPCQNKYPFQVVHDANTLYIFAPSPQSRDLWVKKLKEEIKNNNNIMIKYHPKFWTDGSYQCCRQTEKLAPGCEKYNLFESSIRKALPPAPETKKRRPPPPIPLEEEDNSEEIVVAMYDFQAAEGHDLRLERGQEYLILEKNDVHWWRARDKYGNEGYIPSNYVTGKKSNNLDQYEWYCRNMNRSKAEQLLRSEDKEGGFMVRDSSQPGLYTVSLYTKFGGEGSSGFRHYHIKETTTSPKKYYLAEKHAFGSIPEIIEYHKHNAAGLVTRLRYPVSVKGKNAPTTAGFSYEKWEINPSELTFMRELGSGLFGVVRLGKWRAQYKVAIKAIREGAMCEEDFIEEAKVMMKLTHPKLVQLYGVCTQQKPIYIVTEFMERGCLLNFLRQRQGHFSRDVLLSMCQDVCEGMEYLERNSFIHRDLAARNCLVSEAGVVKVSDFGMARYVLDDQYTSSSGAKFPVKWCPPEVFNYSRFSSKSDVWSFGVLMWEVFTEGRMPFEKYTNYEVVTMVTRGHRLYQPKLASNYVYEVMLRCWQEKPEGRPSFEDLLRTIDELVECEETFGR
Outline: as §1

| SMILES | IC50 [1] [nM] | IC50 [2] [nM] | IC50 [3] [nM] |
| --- | --- | --- | --- |
| C=CC(=O)N(C)[C@@H]1CCN(c2n[nH]c3nccc(-c4ccc(CN(C)C(=O)c5nc(C(C)(C)C)no5)c(F)c4)c23)C1 [Example 338, 3-tert-butyl-N-{[2-fluoro-4-(3-{(3R)-3-[methyl(prop-2-enoyl)amino]pyrrolidin-1-yl}-1H-pyrazolo[3,4-b]pyridin-4-yl)phenyl]methyl}-N-methyl-1,2,4-oxadiazole-5-carboxamide] | 28.3 | 0.0678 | 22.7 |
| C=CC(=O)N1CC[C@@H](Nc2n[nH]c3nccc(-c4ccc(CNC(=O)c5cc(Cl)on5)c(F)c4)c23)C1 [Example 342, 5-chloro-N-{[2-fluoro-4-(3-{[(3R)-1-(prop-2-enoyl)pyrrolidin-3-yl]amino}-1H-pyrazolo[3,4-b]pyridin-4-yl)phenyl]methyl}-1,2-oxazole-3-carboxamide] | 28.8 | 3.77 | 210 |
| C=CC(=O)N1CC[C@@H](Nc2n[nH]c3nccc(-c4ccc(CNC(=O)c5cc(-c6ccccc6)on5)c(F)c4)c23)C1 [Example 345, N-{[2-fluoro-4-(3-{[(3R)-1-(prop-2-enoyl)pyrrolidin-3-yl]amino}-1H-pyrazolo[3,4-b]pyridin-4-yl)phenyl]methyl}-5-phenyl-1,2-oxazole-3-carboxamide] | 55.7 | 30.6 | 253 |
| C=CC(=O)N(C)[C@@H]1CCN(c2n[nH]c3nccc(-c4ccc(CNC(=O)c5nc(C(C)(C)C)no5)c(F)c4)c23)C1 [Example 347, 3-tert-butyl-N-{[2-fluoro-4-(3-{(3R)-3-[methyl(prop-2-enoyl)amino]pyrrolidin-1-yl}-1H-pyrazolo[3,4-b]pyridin-4-yl)phenyl]methyl}-1,2,4-oxadiazole-5-carboxamide] | 15.8 | 0.0423 | 9.02 |
| CC(=O)N[C@@H]1CCN(c2n[nH]c3nccc(-c4ccc([C@@H](C)NC(=O)c5cc(C(C)(C)O)on5)c(F)c4)c23)C1 [Example 349, N-[(1R)-1-(4-{3-[(3R)-3-acetamidopyrrolidin-1-yl]-1H-pyrazolo[3,4-b]pyridin-4-yl}-2-fluorophenyl)ethyl]-5-(2-hydroxypropan-2-yl)-1,2-oxazole-3-carboxamide] | 1330 | 3.99 | 1480 |
| C=CC(=O)N1CC[C@@H](Nc2n[nH]c3nccc(-c4ccc(CNC(=O)c5ccc6c(c5)OCCCO6)c(F)c4)c23)C1 [Example 351, (R)-N-{[2-fluoro-4-(3-{[1-(prop-2-enoyl)pyrrolidin-3-yl]amino}-1H-pyrazolo[3,4-b]pyridin-4-yl)phenyl]methyl}-3,4-dihydro-2H-1,5-benzodioxepine-7-carboxamide] | 95.7 | 4.43 | 340 |
| C=CC(=O)N[C@@H]1CCN(c2n[nH]c3nccc(-c4ccc([C@@H](C)NC(=O)c5cc(C(C)(C)O)on5)c(F)c4)c23)C1 [Example 353, N-{(1R)-1-[2-fluoro-4-(3-{(3R)-3-[(prop-2-enoyl)amino]pyrrolidin-1-yl}-1H-pyrazolo[3,4-b]pyridin-4-yl)phenyl]ethyl}-5-(2-hydroxypropan-2-yl)-1,2-oxazole-3-carboxamide] | 35 | 0.244 | 67.8 |
| CC(=O)N[C@@H]1CCN(c2n[nH]c3nccc(-c4ccc(CNC(=O)c5nc6c(s5)CCCC6)c(F)c4)c23)C1 [Example 356, N-[(4-{3-[(3R)-3-acetamidopyrrolidin-1-yl]-1H-pyrazolo[3,4-b]pyridin-4-yl}-2-fluorophenyl)methyl]-4,5,6,7-tetrahydro-1,3-benzothiazole-2-carboxamide] | 2050 | 11.8 | 5380 |
| CC(C)c1nc(C(=O)NCc2ccc(-c3ccnc4[nH]nc(N5CC[C@@H](N)C5)c34)cc2F)co1 [Example 357, N-[(4-{3-[(3R)-3-aminopyrrolidin-1-yl]-1H-pyrazolo[3,4-b]pyridin-4-yl}-2-fluorophenyl)methyl]-2-(propan-2-yl)-1,3-oxazole-4-carboxamide] | 1770 | 31 | 4880 |
| C=CC(=O)N[C@@H]1CCN(c2n[nH]c3nccc(-c4ccc(CNC(=O)c5coc(C(C)C)n5)c(F)c4)c23)C1 [Example 359, N-{[2-fluoro-4-(3-{(3R)-3-[(prop-2-enoyl)amino]pyrrolidin-1-yl}-1H-pyrazolo[3,4-b]pyridin-4-yl)phenyl]methyl}-2-(propan-2-yl)-1,3-oxazole-4-carboxamide] | 58.8 | 0.402 | 68.5 |
| CC(=O)N[C@@H]1CCN(c2n[nH]c3nccc(-c4ccc(CNC(=O)c5coc(C(C)C)n5)c(F)c4)c23)C1 [Example 360, N-[(4-{3-[(3R)-3-acetamidopyrrolidin-1-yl]-1H-pyrazolo[3,4-b]pyridin-4-yl}-2-fluorophenyl)methyl]-2-(propan-2-yl)-1,3-oxazole-4-carboxamide] | 3430 | 14.3 | 3210 |
| C=CC(=O)N1CC[C@@H](Nc2n[nH]c3nccc(-c4ccc(CNC(=O)c5ccc6scnc6c5)c(F)c4)c23)C1 [Example 362, N-{[2-fluoro-4-(3-{[(3R)-1-(prop-2-enoyl)pyrrolidin-3-yl]amino}-1H-pyrazolo[3,4-b]pyridin-4-yl)phenyl]methyl}-1,3-benzothiazole-5-carboxamide] | 19 | 0.727 | 73.3 |
| C=CC(=O)NC1CCN(c2n[nH]c3nccc(-c4ccc([C@@H](C)NC(=O)c5cc(C(C)(C)O)on5)cc4)c23)CC1 [Example 364, 5-(2-hydroxypropan-2-yl)-N-{(1R)-1-[4-(3-{4-[(prop-2-enoyl)amino]piperidin-1-yl}-1H-pyrazolo[3,4-b]pyridin-4-yl)phenyl]ethyl}-1,2-oxazole-3-carboxamide] | 5770 | 54.7 | 9390 |
| CC(=O)NC1CCN(c2n[nH]c3nccc(-c4ccc([C@@H](C)NC(=O)c5cc(C(C)(C)O)on5)cc4)c23)CC1 [Example 365, N-[(1R)-1-{4-[3-(4-acetamidopiperidin-1-yl)-1H-pyrazolo[3,4-b]pyridin-4-yl]phenyl}ethyl]-5-(2-hydroxypropan-2-yl)-1,2-oxazole-3-carboxamide] | 3040 | 46.2 | 6160 |
| N[C@@H]1CCN(c2n[nH]c3nccc(-c4ccc(CNC(=O)c5nc6c(s5)CCCC6)c(F)c4)c23)C1 [Example 366, N-[(4-{3-[(3R)-3-aminopyrrolidin-1-yl]-1H-pyrazolo[3,4-b]pyridin-4-yl}-2-fluorophenyl)methyl]-4,5,6,7-tetrahydro-1,3-benzothiazole-2-carboxamide] | 1320 | 21.9 | 7070 |
| C=CC(=O)N[C@@H]1CCN(c2n[nH]c3nccc(-c4ccc(CNC(=O)c5noc(C(C)C)n5)c(F)c4)c23)C1 [Example 367, N-{[2-fluoro-4-(3-{(3R)-3-[(prop-2-enoyl)amino]pyrrolidin-1-yl}-1H-pyrazolo[3,4-b]pyridin-4-yl)phenyl]methyl}-5-(propan-2-yl)-1,2,4-oxadiazole-3-carboxamide] | 26.5 | 0.058 | 47.4 |
